Reference: US6933150B1, “Relationship of ABC transport proteins with hematopoietic stem cells and methods of use thereof” (priority 1998, dated 2005)

Tests used:
ABC transporter = experiment: SP cell analysis of mdr1a/1b knockout bone marrow cells treated with ABC transporter inhibitors; conditions: treatment before and during Hoechst 33342 staining
Protocol: Hoechst 33342 SP cell assay: Murine bone marrow cells were collected and resuspended at 1×10^6 cells/ml in DMEM plus 10 mM HEPES and 2%, FBS. In a water bath, the cells were allowed to equilibrate at 37° C., followed by addition of 5 μg/ml Hoechst 33342 (Fisher Scientific, Pittsburgh, Pa.) for 90 minutes as previously described [Goodell et al., J. Exp. Med., 183:1797-1806 (1996)]. Cells were then centrifuged at 4° C. and resuspended in ice cold HBSS plus 10 mM HEPES and 2% FBS at 1×10^7 cells/ml. For flow cytometric analysis or sorting, a Becton Dickinson FACS Vantage flow cytometer (Becton Dickinson, San Jose, Calif.) was configured for dual emission wavelength analysis as previously described [Goodell et al., J. Exp. Med., 183:1797-1806 (1996)]. Cells were gated based on forward and side light scatter to exclude debris. […] Cells were analyzed at approximately 5,000 cells/second until data from 1×10^6 cells were collected. The SP cell gate was defined based on normal fresh C57BL/6 bone marrow cells.
Cells were treated with either verapamil or 2-deoxyglucose. Verapamil is a competitive inhibitor of several known ABC transporters including MDR1, whereas 2-deoxyglucose is an inhibitor of ATP synthesis that depletes cellular ATP levels required for ABC transporter function.

myeloid progenitors = experiment: Drug-resistant myeloid progenitor (CFU-C) assay in methylcellulose; assay type: cell-based, mouse; conditions: 25 to 50 nM, thymidine phosphorylase-treated methylcellulose
Protocol: Ex vivo culture and expansion of myeloid progenitors: Following transduction (day 0), cells were cultured in the presence of the growth factor combination described above. Cells were resuspended at 1×10^6 cells/ml every 3-6 days for at least 12 days of expansion. Aliquots of cells were removed for CFU-C analysis at various time points.
Retroviral-mediated gene transfer into murine hematopoietic stem cells: BM cells were harvested from C57BL/6 or B6.Ch-1/By (referred to as “HW80”) congenic mouse strains (Jackson Laboratories, Bar Harbor, Me. ) by standard methods. Following isolation, cells were placed into liquid suspension culture in Dulbecco's Modified Eagle's Medium (DMEM) (BioWhittaker, Walkersville, Md.) with 1% penicillin/streptomycin (Gibco/BRL, Grand Island, N.Y.), 15% fetal bovine serum (FBS; Hyclone, Logan Utah), 20 ng/ml murine interleukin (IL)-3®& D Systems, Minneapolis, Minn.), 50 ng/ml human IL-6 (Amgen, Thousand Oaks, Calif.), and 50 ng/ml murine stem cell factor ® & D Systems). The cells were initially plated at 1×10^6 cells/ml in 10 mls of medium. Following pre-stimulation for 48 hours, cells were replated onto confluent monolayers of irradiated ecotropic producer cell lines. The bone marrow cells were plated at the same density used in the pre-stimulation phase and in the same medium with 6 μg/ml polybrene added. […]

| SMILES | Effect on SP cell phenotype (ABC transporter) | Killing of non-transduced background cells (myeloid progenitors) |
| --- | --- | --- |
| O=CC[C@@H](O)[C@H](O)[C@H](O)CO [2-deoxyglucose] | eliminated phenotypically identifiable SP cells | – |
| COc1cc(NCc2ccc3nc(N)nc(N)c3c2C)cc(OC)c1OC [trimetrexate] | – | completely killed |
| COc1ccc(CCN(C)CCCC(C#N)(c2ccc(OC)c(OC)c2)C(C)C)cc1OC (stereo not drawn) [verapamil] | eliminated phenotypically identifiable SP cells | – |
